Our source for the melting point values is US6723735B1, “Imidazo-pyridine derivatives as ligands for GABA receptors” (Merck Sharp & Dohme Ltd., priority 1999, dated 2004).

The structures appear in SMILES notation. Structures can show the parent of a compound that is named as a salt.

What is called melting point is the temperature of the solid-liquid transition. Regarding `c1ccc(-c2cnc3c(c2)ncn3-c2cccc(-c3cccnc3)c2)cc1` [Example 5, 6-Phenyl-3-[3-(pyridin-3-yl)phenyl]-3H-imidazo[4,5-b]pyridine], the melting point lay in the range of 179 to 180 °C.

The molecule `c1cncc(-c2cccc(-n3cnc4cc(-c5ccoc5)cnc43)c2)c1` [Example 1, 6-(Furan-3-yl)-3-[3-(pyridin-3-yl)phenyl]-3H-imidazo[4,5-b]pyridine] registered a melting point of 191 to 192 °C.

On to `c1cc(-n2ccnc2)cc(-n2cnc3cc(-c4ccoc4)cnc32)c1` (as salt: oxalate) [Example 3, 6-(Furan-3-yl)-3-[3-(imidazol-1-yl)phenyl]-3H-imidazo[4,5-b]pyridine], for which the melting point was 202 to 204 °C.
